Calls of active or inactive are those of the source. The calls are words filed in the database; no cut-off is given here.
How the values were obtained:
T-24 [1] = assay: Antiproliferative activity against human bladder carcinoma T24 cells; assay type: functional; conditions: read-out: ED50 (the source's name)
HFL1 = assay: Antiproliferative activity against human fibroblast HFL1 cells; assay type: functional; conditions: read-out: ED50 (the source's name)
SV3T3 = assay: Antiproliferative activity against virus transformed mouse fibroblast 3T3 SV40 cells; assay type: functional; conditions: read-out: ED50 (the source's name)
T-24 [2] = assay: Ability to prime Heparan sulfate synthesis in T24 cells at 0.1 mM; assay type: functional, Homo sapiens
[3] = Dissociation constant, pKa of the compound; assay type: physicochemical
BALB/3T3 = assay: Antiproliferative activity against mouse fibroblast 3T3 A31 cells; assay type: functional; conditions: read-out: ED50 (the source's name)
T-24 [4] = assay: Induction of apoptosis in T24 cells using TUNEL assay; assay type: functional, cell-based; conditions: Homo sapiens

Row | Compound | pKa [3] | EC50 (T-24 [1]) | EC50 (HFL1) | EC50 (SV3T3) | Activity (T-24 [2]) | EC50 (BALB/3T3) | Activity (T-24 [4])
1 | Oc1cc2ccccc2cc1O |  | 30 µM | 40 µM |  |  |  | 
2 | Oc1cccc2cccc(O)c12 |  | 10 µM | 20 µM |  |  |  | 
3 | Oc1cccc2c(O)cccc12 |  | < 10 µM | 20 µM |  |  |  | 
4 | Oc1ccc2ccccc2c1O |  | 13 µM | 25 µM |  |  |  | 
5 | O[C@@H]1[C@@H](O)[C@H](Oc2ccc3ccccc3c2)OC[C@H]1O |  |  |  |  |  |  | inactive
6 | Oc1ccc(O)c2ccccc12 |  | 0.7 µM | 1 µM |  |  |  | 
7 | Oc1ccc2cccc(O)c2c1 |  | < 10 µM | < 25 µM |  |  |  | 
8 | Oc1cc(O)c2ccccc2c1 |  | 70 µM | 100 µM |  |  |  | 
9 | Oc1ccc2ccc(O)cc2c1 |  | 30 µM | 70 µM |  |  |  | 
10 | Oc1ccc2c(O)cccc2c1 |  | 20 µM | 70 µM |  |  |  | 
11 | Oc1ccc2cc(O)ccc2c1 |  | < 10 µM | < 25 µM |  |  |  | 

Continued, in another order:

Row | pKa [3] | Compound | EC50 (T-24 [1]) | EC50 (HFL1) | EC50 (SV3T3) | Activity (T-24 [2]) | EC50 (BALB/3T3) | Activity (T-24 [4])
12 | 9.22 | Oc1cc(O[C@@H]2OC[C@@H](O)[C@H](O)[C@H]2O)c2ccccc2c1 | 100 µM | 240 µM | 275 µM | 14% | 130 µM | 
13 | 9.63 | Oc1ccc2cc(O[C@@H]3OC[C@@H](O)[C@H](O)[C@H]3O)ccc2c1 | 100 µM | 500 µM | 320 µM | 30% | 440 µM | Active
14 | 8.66 | Oc1cc(O[C@@H]2OC[C@@H](O)[C@H](O)[C@H]2O)cc2ccccc12 | 25 µM | 320 µM | 575 µM | 20% | 410 µM | 
15 | 8.63 | Oc1ccc2ccccc2c1O[C@@H]1OC[C@@H](O)[C@H](O)[C@H]1O | 150 µM | 80 µM | 65 µM | 2% | 10 µM | 
16 | 10.1 | Oc1cccc2cccc(O[C@@H]3OC[C@@H](O)[C@H](O)[C@H]3O)c12 | 220 µM | 180 µM | 340 µM | 27% | 185 µM | 
17 | 8.72 | Oc1c(O[C@@H]2OC[C@@H](O)[C@H](O)[C@H]2O)ccc2ccccc12 | 160 µM | 40 µM | 120 µM | 22% | 120 µM | 
18 | 9.17 | Oc1cccc2cc(O[C@@H]3OC[C@@H](O)[C@H](O)[C@H]3O)ccc12 | 600 µM | 500 µM | 430 µM | 12% | > 500 µM | 
19 | 9.41 | Oc1ccc2ccc(O[C@@H]3OC[C@@H](O)[C@H](O)[C@H]3O)cc2c1 | 500 µM | 500 µM | 460 µM | 37% | 300 µM | 
20 | 8.76 | Oc1cc2ccccc2cc1O[C@@H]1OC[C@@H](O)[C@H](O)[C@H]1O | 400 µM | 190 µM | 180 µM | 28% | 25 µM | 
21 | 9.29 | Oc1cccc2ccc(O[C@@H]3OC[C@@H](O)[C@H](O)[C@H]3O)cc12 | 420 µM | 330 µM | 510 µM | 27% | 160 µM | 
22 | 9.34 | Oc1ccc2c(O[C@@H]3OC[C@@H](O)[C@H](O)[C@H]3O)cccc2c1 | 125 µM | 370 µM | > 500 µM | 13% | 210 µM | 
23 | 9.4 | Oc1ccc(O[C@@H]2OC[C@@H](O)[C@H](O)[C@H]2O)c2ccccc12 | 1 µM | 6 µM | 105 µM | 12% | 165 µM | 
24 | 9.35 | Oc1ccc2cccc(O[C@@H]3OC[C@@H](O)[C@H](O)[C@H]3O)c2c1 | 370 µM | 370 µM | 550 µM | 15% | 260 µM | 
25 | 9.16 | Oc1cccc2c(O[C@@H]3OC[C@@H](O)[C@H](O)[C@H]3O)cccc12 | 470 µM | 500 µM | > 500 µM | 29% | > 500 µM | 
